In patent US8207172B2 (Bayer Intellectual Property GmbH, priority 2004, dated 2012) one finds IC50 data, which are given here for 25 compounds.

Experiment [1] deals with BT474 (human breast carcinoma). The experiment in a line: In vitro tumor cell proliferation assay (Cell Titer-Glo luminescent cell viability), BT474. The class given is cell-based. The following applies: BT-474, 72 h, BT474 cells, 72 hours of drug exposure, ATP luminescence readout, read-out: IC50, anti-proliferative activity (inhibition of cell proliferation). The essentials:
(§1)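 Proliferation inhibition was measured as ATP-dependent luciferase signal after cells in RPMI with 10% FBS received test compound for 72 h at 37° C. Final concentrations spanned […] to 64 pM in 0.1% DMSO; IC50 values were derived.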
(Cellular ATP, detected with luciferase, serves as a proxy for viable cell number.)

For experiment [2], the system named is A431 cells (human epidermoid carcinoma). The experiment can be described thus: In vitro tumor cell proliferation assay (Cell Titer-Glo luminescent cell viability), A431. The class given is cell-based. Conditions: A-431, 72 h, 72 hours of drug exposure, ATP luminescence readout, read-out: IC50, anti-proliferative activity (inhibition of cell proliferation). The essentials: as §1

For `CS(=O)(=O)OCCn1cc2c(n1)CCc1c-2sc2ncnc(Nc3ccc4c(cnn4Cc4cccc(F)c4)c3)c12` [Example 276, 2-(6-{[1-(3-fluorobenzyl)-1H-indazol-5-yl]amino}-4,5-dihydro-2H-pyrimido[5′,4′:4,5]thieno[2,3-e]indazol-2-yl)ethyl methanesulfonate], the figures for the IC50 in experiment [1] and in experiment [2] were ≤ 1 µM and ≤ 5 µM, respectively.

As to `CN1CCN(CCn2cc3c(n2)CCc2c-3sc3ncnc(Nc4ccc5c(cnn5Cc5cccc(F)c5)c4)c23)CC1` [Example 277], the IC50 is ≤ 1 µM in experiment [1] and ≤ 5 µM in experiment [2].

`Fc1cccc(Cn2ncc3cc(Nc4ncnc5sc6c(c45)CCc4nn(CCN5CCOCC5)cc4-6)ccc32)c1` [Example 278, N-[1-(3-fluorobenzyl)-1H-indazol-5-yl]-2-(2-morpholin-4-ylethyl)-4,5-dihydro-2H-pyrimido[5′,4′:4,5]thieno[2,3-e]indazol-6-amine]: the figures for the IC50 in experiment [1] and in experiment [2] were ≤ 1 µM and ≤ 5 µM, respectively.

With `Fc1cccc(Cn2ncc3cc(Nc4ncnc5sc6c(c45)CCc4nn(CCn5ccnc5)cc4-6)ccc32)c1` [Example 279, N-[1-(3-fluorobenzyl)-1H-indazol-5-yl]-2-[2-(1H-imidazol-1-yl)ethyl]-4,5-dihydro-2H-pyrimido[5′,4′:4,5]thieno[2,3-e]indazol-6-amine], the IC50 in experiment [1] is ≤ 1 µM; in experiment [2], ≤ 5 µM.

For `COCCNCCn1cc2c(n1)CCc1c-2sc2ncnc(Nc3ccc4c(cnn4Cc4cccc(F)c4)c3)c12` [Example 280, N-[1-(3-fluorobenzyl)-1H-indazol-5-yl]-2-{2-[(2-methoxyethyl)amino]ethyl}-4,5-dihydro-2H-pyrimido[5′,4′:4,5]thieno[2,3-e]indazol-6-amine], the IC50 in experiment [1] was ≤ 1 µM; in experiment [2], ≤ 5 µM.

As to `OCCNCCn1cc2c(n1)CCc1c-2sc2ncnc(Nc3ccc4c(cnn4Cc4cccc(F)c4)c3)c12` [Example 281, 2-{[2-(6-{[1-(3-fluorobenzyl)-1H-indazol-5-yl]amino}-4,5-dihydro-2H-pyrimido[5′,4′:4,5]thieno[2,3-e]indazol-2-yl)ethyl]amino}ethanol], the IC50 in experiment [1] is ≤ 1 µM; in experiment [2], ≤ 5 µM.

Take `CN(C)C1CCN(CCn2cc3c(n2)CCc2c-3sc3ncnc(Nc4ccc5c(cnn5Cc5cccc(F)c5)c4)c23)C1` (centres unmarked) [Example 282, 2-{2-[3-(dimethylamino)pyrrolidin-1-yl]ethyl}-N-[1-(3-fluorobenzyl)-1H-indazol-5-yl]-4,5-dihydro-2H-pyrimido[5′,4′:4,5]thieno[2,3-e]indazol-6-amine]: the IC50 in experiment [1] was ≤ 1 µM; in experiment [2], ≤ 5 µM.

As for `CCN1CCN(CCn2cc3c(n2)CCc2c-3sc3ncnc(Nc4ccc5c(cnn5Cc5cccc(F)c5)c4)c23)CC1` [Example 283, 2-[2-(4-ethylpiperazin-1-yl)ethyl]-N-[1-(3-fluorobenzyl)-1H-indazol-5-yl]-4,5-dihydro-2H-pyrimido[5′,4′:4,5]thieno[2,3-e]indazol-6-amine], the IC50 is ≤ 1 µM in experiment [1] and ≤ 5 µM in experiment [2].

Turning to `Fc1cccc(Cn2ncc3cc(Nc4ncnc5sc6c(c45)CCc4nn(CCN5CCNCC5)cc4-6)ccc32)c1` [Example 284, N-[1-(3-fluorobenzyl)-1H-indazol-5-yl]-2-(2-piperazin-1-ylethyl)-4,5-dihydro-2H-pyrimido[5′,4′:4,5]thieno[2,3-e]indazol-6-amine], the IC50 in experiment [1] is ≤ 1 µM; in experiment [2], ≤ 5 µM.

For the compound `COCCN(CCOC)CCn1cc2c(n1)CCc1c-2sc2ncnc(Nc3ccc4c(cnn4Cc4cccc(F)c4)c3)c12` [Example 285, 2-{2-[bis(2-methoxyethyl)amino]ethyl}-N-[1-(3-fluorobenzyl)-1H-indazol-5-yl]-4,5-dihydro-2H-pyrimido[5′,4′:4,5]thieno[2,3-e]indazol-6-amine], the IC50 was ≤ 1 µM in experiment [1] and ≤ 5 µM in experiment [2].

For the compound `OC1CCN(CCn2cc3c(n2)CCc2c-3sc3ncnc(Nc4ccc5c(cnn5Cc5cccc(F)c5)c4)c23)C1` (centres unmarked) [Example 286, 1-[2-(6-{[1-(3-fluorobenzyl)-1H-indazol-5-yl]amino}-4,5-dihydro-2H-pyrimido[5′,4′:4,5]thieno[2,3-e]indazol-2-yl)ethyl]pyrrolidin-3-ol], the IC50 in experiment [1] is ≤ 1 µM; in experiment [2], ≤ 5 µM.

Take `Fc1cccc(Cn2ncc3cc(Nc4ncnc5sc6c(c45)CCc4n[nH]cc4-6)ccc32)c1` [Example 288, N-[1-(3-fluorobenzyl)-1H-indazol-5-yl]-4,5-dihydro-2H-pyrimido[5′,4′:4,5]thieno[2,3-e]indazol-6-amine]: the IC50 in experiment [1] is ≤ 1 µM; in experiment [2] it was ≤ 5 µM.

For the compound `OCCn1ncc2c1CCc1c-2sc2ncnc(Nc3ccc4c(cnn4Cc4cccc(F)c4)c3)c12` [Example 289, 2-(6-{[1-(3-fluorobenzyl)-1H-indazol-5-yl]amino}-4,5-dihydro-3H-pyrimido[5′,4′:4,5]thieno[2,3-e]indazol-3-yl)ethanol], the IC50 in experiment [1] is ≤ 1 µM; in experiment [2], ≤ 5 µM.

Take `CS(=O)(=O)OCCn1ncc2c1CCc1c-2sc2ncnc(Nc3ccc4c(cnn4Cc4cccc(F)c4)c3)c12` [Example 290, 2-(6-{[1-(3-fluorobenzyl)-1H-indazol-5-yl]amino}-4,5-dihydro-3H-pyrimido[5′,4′:4,5]thieno[2,3-e]indazol-3-yl)ethyl methanesulfonate]: the IC50 in experiment [1] is ≤ 1 µM; in experiment [2], ≤ 5 µM.

Consider `Fc1cccc(Cn2ncc3cc(Nc4ncnc5sc6c(c45)CCc4c-6cnn4CCn4ccnc4)ccc32)c1` [Example 291, N-[1-(3-fluorobenzyl)-1H-indazol-5-yl]-3-[2-(1H-imidazol-1-yl)ethyl]-4,5-dihydro-3H-pyrimido[5′,4′:4,5]thieno[2,3-e]indazol-6-amine], for which the figures for the IC50 in experiment [1] and in experiment [2] were ≤ 1 µM and ≤ 5 µM, respectively.

Regarding `COCCN(CCOC)CCn1ncc2c1CCc1c-2sc2ncnc(Nc3ccc4c(cnn4Cc4cccc(F)c4)c3)c12` [Example 292, 3-{2-[bis(2-methoxyethyl)amino]ethyl}-N-[1-(3-fluorobenzyl)-1H-indazol-5-yl]-4,5-dihydro-3H-pyrimido[5′,4′:4,5]thieno[2,3-e]indazol-6-amine], the IC50 in experiment [1] is ≤ 1 µM; in experiment [2], ≤ 5 µM.

Turning to `CN(C)C1CCN(CCn2ncc3c2CCc2c-3sc3ncnc(Nc4ccc5c(cnn5Cc5cccc(F)c5)c4)c23)C1` (centres unmarked) [Example 293, 3-{2-[3-(dimethylamino)pyrrolidin-1-yl]ethyl}-N-[1-(3-fluorobenzyl)-1H-indazol-5-yl]-4,5-dihydro-3H-pyrimido[5′,4′:4,5]thieno[2,3-e]indazol-6-amine], the IC50 in experiment [1] is ≤ 1 µM; in experiment [2], ≤ 50 µM.

Turning to `CCN1CCN(CCn2ncc3c2CCc2c-3sc3ncnc(Nc4ccc5c(cnn5Cc5cccc(F)c5)c4)c23)CC1` [Example 294, 3-[2-(4-ethylpiperazin-1-yl)ethyl]-N-[1-(3-fluorobenzyl)-1H-indazol-5-yl]-4,5-dihydro-3H-pyrimido[5′,4′:4,5]thieno[2,3-e]indazol-6-amine], the values for the IC50 in experiment [1] and in experiment [2] were ≤ 1 µM and ≤ 50 µM, respectively.

On to `CN1CCN(CCn2ncc3c2CCc2c-3sc3ncnc(Nc4ccc5c(cnn5Cc5cccc(F)c5)c4)c23)CC1` [Example 295, 3-[2-(4-methylpiperazin-1-yl)ethyl]-N-[1-(3-fluorobenzyl)-1H-indazol-5-yl]-4,5-dihydro-3H-pyrimido[5′,4′:4,5]thieno[2,3-e]indazol-6-amine], for which the results for the IC50 in experiment [1] and in experiment [2] were ≤ 1 µM and ≤ 5 µM, respectively.

Take `Fc1cccc(Cn2ncc3cc(Nc4ncnc5sc6c(c45)CCc4c-6cnn4CCN4CCOCC4)ccc32)c1` [Example 296, N-[1-(3-fluorobenzyl)-1H-indazol-5-yl]-3-(2-morpholin-4-ylethyl)-4,5-dihydro-3H-pyrimido[5′,4′:4,5]thieno[2,3-e]indazol-6-amine]: the results for the IC50 in experiment [1] and in experiment [2] were ≤ 1 µM and ≤ 5 µM, respectively.

For `COCCNCCn1ncc2c1CCc1c-2sc2ncnc(Nc3ccc4c(cnn4Cc4cccc(F)c4)c3)c12` [Example 297, N-[1-(3-fluorobenzyl)-1H-indazol-5-yl]-3-{2-[(2-methoxyethyl)amino]ethyl}-4,5-dihydro-3H-pyrimido[5′,4′:4,5]thieno[2,3-e]indazol-6-amine], the IC50 in experiment [1] was ≤ 1 µM; in experiment [2], ≤ 5 µM.

For `Fc1cccc(Cn2ncc3cc(Nc4ncnc5sc6c(c45)CCc4c-6cnn4CCN4CCNCC4)ccc32)c1` [Example 298, N-[1-(3-fluorobenzyl)-1H-indazol-5-yl]-3-(2-piperazin-1-ylethyl)-4,5-dihydro-3H-pyrimido[5′,4′:4,5]thieno[2,3-e]indazol-6-amine], the IC50 in experiment [1] was ≤ 1 µM; in experiment [2] it was ≤ 5 µM.

For `OC1CCN(CCn2ncc3c2CCc2c-3sc3ncnc(Nc4ccc5c(cnn5Cc5cccc(F)c5)c4)c23)C1` (centres unmarked) [Example 299, 1-[2-(6-{[1-(3-fluorobenzyl)-1H-indazol-5-yl]amino}-4,5-dihydro-3H-pyrimido[5′,4′:4,5]thieno[2,3-e]indazol-3-yl)ethyl]pyrrolidin-3-ol], the values for the IC50 in experiment [1] and in experiment [2] were ≤ 1 µM and ≤ 5 µM, respectively.

Consider `OCCNCCn1ncc2c1CCc1c-2sc2ncnc(Nc3ccc4c(cnn4Cc4cccc(F)c4)c3)c12` [Example 300, 2-{[2-(6-{[1-(3-fluorobenzyl)-1H-indazol-5-yl]amino}-4,5-dihydro-3H-pyrimido[5′,4′:4,5]thieno[2,3-e]indazol-3-yl)ethyl]amino}ethanol], for which the IC50 is ≤ 1 µM in experiment [1] and ≤ 5 µM in experiment [2].

In the case of `OCCn1cc2c(n1)CCc1c-2sc2ncnc(Nc3ccc4c(cnn4Cc4ccccc4)c3)c12` [Example 302, 2-{6-[(1-benzyl-1H-indazol-5-yl)amino]-4,5-dihydro-2H-pyrimido[5′,4′:4,5]thieno[2,3-e]indazol-2-yl}ethanol], the IC50 in experiment [1] is ≤ 1 µM; in experiment [2] it was ≤ 5 µM.
